Test results taken from a melting point compilation (Tetko et al.; mined from patent text by program, amines drawn as free bases though some values may be those of a salt).

Structure (SMILES)	melting point
CCOC(=O)c1cn(OC)c2nc3cc(F)c(F)cc3cc2c1=O	266 to 268 °C
CC(=O)N1CC(CCN2CCC(c3c[nH]c4cc(Cl)ccc34)CC2)c2ccccc21 (stereo unspecified)	188 to 190 °C
C=CCCN1C(=O)C2C3CCC(O3)C2C1=O (stereo unspecified)	64 to 65 °C
O=C1CCC(N2Cc3c(OCc4ccc(CN5CCOc6ccccc65)cc4)cccc3C2=O)C(=O)N1 (stereo unspecified)	145 to 147 °C
COC(=O)CCCn1sc(Cl)cc1=O	54 to 56 °C
CC(C)(OCc1nn(Cc2ccccc2)c2ccc(Cl)cc12)C(=O)O	145 to 147 °C
Cn1c(C(F)(F)F)ccc(-c2c(F)cc(Cl)c3oc(CO)cc23)c1=O	145 to 147 °C
Cc1cc(F)cc2c1CC/C2=C\C(N)=O	178 to 180 °C
N#Cc1nn(-c2c(Cl)cc(C(F)(F)F)cc2Cl)c(N)c1-c1ccoc1Cl	153 °C
CCSc1nc2cccc(C(=O)O)c2n1Cc1ccc(-c2ccccc2-c2nc(=O)o[nH]2)cc1	146 to 148 °C
O=c1cc(C(F)(F)F)[nH]c(=O)n1-c1ccc(Cl)cc1F	189 °C
Cc1nc(-c2ccc(CN3C(=O)C4(COc5cc6c(cc54)CCO6)c4ccccc43)cc2)no1 (stereo unspecified)	185 to 186 °C
Cc1ccc(-n2nccc2-c2nn(-c3cccc(C(F)(F)F)c3)ccc2=O)cc1	164 to 165 °C
CCCCCCCCCCCCCCCCCCOc1cc(OCC(=O)OC)cc(C(=O)N(CC(=O)OC)CC(=O)OC)c1	53 to 55 °C
Nc1nsnc1-c1c(Cl)cccc1Cl	95 to 97 °C
Nc1cnc2c(NC(=O)c3c(Cl)cccc3Cl)cccc2c1-n1ccnc1	> 250 °C
Nc1c(Br)cc2c(c1Br)CCC2	220 to 221 °C
NC(=O)CNC(=O)c1cccc(-c2cccc3c(F)c(Cc4cccc(C(F)(F)F)c4)sc23)c1	127 to 128 °C
CCCCC/C=C\C/C=C\CCCCCCCC(=O)Nc1c(OC)cc(OC)cc1OC	87 to 89 °C
CC(=O)OCC1Cn2cc(C(=O)NCc3ccc(Cl)cc3)c(=O)c3cc(CN4CCOCC4)cc(c32)O1 (stereo unspecified)	215 to 218 °C
COc1cccc(COCCCn2ccnc2)c1NC(=O)CC1c2ccccc2Oc2ccccc21	155 to 156 °C

Structure (SMILES)	melting point
CCC1NC(=O)C2=C1c1ccc(Cl)cc1C(c1ccccc1Cl)=NC2 (stereo unspecified)	233 to 235 °C
N#CC(Cl)CC(Cl)(Cl)C=O (stereo unspecified)	49 to 50 °C
CC(C)(C)OC(=O)Cn1c(=O)n(Cc2ccccc2)c2ccccc21	99 to 100 °C
Oc1ncnc2c(-c3ccc(Cc4ccc(Cl)cc4)cc3)cnn12	292 to 296 °C
CCNC(=O)N1N=C(c2ccc(N)cc2)c2cc(Cl)ccc2CC1C (stereo unspecified)	165 to 167 °C
OC1(CNCc2ccccc2)CCN(CCc2c[nH]c3ccc(-n4cnnc4)cc23)C1 (stereo unspecified)	> 56 °C
COc1cc2cc(C(=O)OC(C)(C)C)c(N)cc2cc1OCc1ccccc1	179 to 180 °C
COc1ccc2nc(NC(=O)C(CC3CCCC3)c3ccc(S(=O)(=O)NCc4ccco4)cc3)sc2n1 (stereo unspecified)	244 to 247 °C
O=C(O)c1cn(-c2cc(O)c(F)cc2[N+](=O)[O-])c2c(Cl)c(F)c(F)cc2c1=O	248 to 255 °C
COc1nc2cc([N+](=O)[O-])cc(Br)c2nc1OC	171 to 175 °C
Clc1nccc(N2CCC3(CC2)OCc2ccccc23)c1Cl	161 °C
CC(OC1CCCCO1)C1CCC2C3CC=C4CC(O)CC(O)C4(C)C3CCC12C (stereo unspecified)	122 to 124 °C
CN(C)S(=O)(=O)c1cccc(Cl)c1S(N)(=O)=O	171 to 182 °C
CCC(=O)c1ccc(OC)c(C)c1C	39 to 40 °C
COc1cc2c(cc1OC)CN(CCCOc1ccc(NC(=O)c3cccc4c(=O)c5cccc(C)c5[nH]c34)c(C)c1)CC2	160 °C
O=C(N[C@H]1CC[C@H](CCN2CCC(c3cccc4c3CCO4)CC2)CC1)C1(O)CC1	164 °C
C#CCN1C(=O)COc2ccc(-n3c(=O)cc(C(F)(F)F)[nH]c3=O)cc21	> 250 °C
NS(=O)(=O)NC[C@H]1COc2cc(Cl)c(Cl)cc2O1	119 to 121 °C
CC(C)OC(=O)c1cc(-n2c(=O)c3c(n(C)c2=O)CCS3)c(F)cc1Cl	156 to 158 °C
CS(=O)(=O)N1CCN(c2nc(N)nc(-c3cc(Cl)ccc3Cl)n2)CC1	184 to 186 °C
CC(C)(C)c1ccc(Cn2c3c(c4cc(OCc5ccccc5)ccc42)C(=O)C(=O)OC3)cc1	233 to 234 °C

Continued, values first:

melting point	Structure (SMILES)
134 to 135 °C	C[C@@H](Cn1ncc2ccc3c(c21)O[C@@H](CN=[N+]=[N-])CO3)NC(=O)OC(C)(C)C
170 °C	CCCOc1ccc(-c2ccc(=S)[nH]n2)cc1OC
88 to 89 °C	COC(=O)c1nc(N=[N+]=[N-])ccc1OCc1ccccc1
159 °C	CCOC(Cc1ccc(OCCn2ccc3ccc(C(=O)C4CC4)nc32)cc1)C(=O)OC (stereo unspecified)
75 to 75.5 °C	CON(C)C(=O)Cc1ccc([N+](=O)[O-])cc1
102 to 103 °C	O=C(CC1(O)C(=O)N(Cc2ccc(Cl)cc2)c2ccccc21)C1CC1 (stereo unspecified)
178 °C	CC(=O)OC1CSC(Oc2cncc(-c3ccc(F)c(C#N)c3)c2)C(OC(C)=O)C1OC(C)=O (stereo unspecified)
84 to 85 °C	CCOC(=O)C1(C(=O)OCC)C(C(C)=O)C(=O)N1Cc1ccc(OC)cc1OC (stereo unspecified)
190 to 192 °C	CC1(C)CNc2nc(-c3ccncc3)c(F)c(=O)n2C1
151 to 155 °C	O=C1NCCCN1Cc1ccc2ccccc2c1
136 to 138 °C	Fc1cccc(F)c1C1=NC(c2ccccc2Br)CCS1 (stereo unspecified)
179 to 180 °C	N#Cc1ccc(OC2SCC(O)C(O)C2O)cn1 (stereo unspecified)
158 to 160 °C	OCc1nnc(-c2cc3c(OC[C@@H](O)CN4CCC(c5ccc(Cl)c(Cl)c5)CC4)cccc3o2)o1
142 to 144 °C	O=Cc1cc2sc3ccccc3c2c2ccccc12
168 to 170 °C	N#CNc1cc(F)ccc1N1CCOCC1
194 to 196 °C	Cc1ccc2c(c1)N=C(N1CCC(C)CC1)c1cccc3c1N2CC3
109 to 110 °C	Cc1oc(-c2ccccc2)nc1CCOc1ccc(CCC#N)cc1
254 to 256 °C	O=C(Nc1cc(O)c(Cl)cc1O)c1ccc(O)c(F)c1
44 to 46 °C	C=CC(=O)Oc1ccc(C(=O)c2ccccc2)cc1
47 to 48 °C	O=C(c1ccccc1)N1CC2COCC2C1 (stereo unspecified)
106 °C	O=C(NO)[C@H](CNS(=O)(=O)c1ccc(OCc2ccc3ccccc3c2)cc1)N1CCCCC1
97 to 98 °C	Cn1cnc2c1c(=O)n(CCCCCCOc1ccc(Cl)cc1)c(=O)n2C
91.5 to 92.5 °C	COC(=O)CNc1cccc(C#N)c1
115 to 116 °C	COc1cccc(-c2cc(=O)c3cc(OCCCCCN4CCC(O)CC4)ccc3o2)c1
60 to 65 °C	O=C(OCC1CO1)c1cccc(C(=O)OCC2CO2)c1 (stereo unspecified)
121 to 124 °C	O=C(Cc1ccccc1)NN(C1=NCCS1)c1ccccc1
221 to 223 °C	O=C1c2c(O)cc(O)cc2OC(c2ccc(O)cc2)C1O (stereo unspecified)
116 to 119 °C	CC(C)(C)OC(=O)N[C@H](Cc1ccc(Cl)c(Cl)c1)C(=O)N1CCC[C@H]1C(=O)NC1CCc2nc(N)sc2C1 (stereo partly specified)
95.1 °C	CCOc1ccc(C=[N+]([O-])C2CCCC2)cc1
